Laboratory results published in patent publication US11008332B2, “Pharmaceutical composition for preventing or treating aging-related diseases containing decursin derivative as active ingredient” (PRG S&TECH INC., priority 2017, dated 2021).
“Also recorded” adds a separate entry of the source.

Assays:
[1] = Stability in monoolein-based solution on heating and sonication (LC-MS); assay type: physicochemical; details: heating at 80° C. and sonication, FIG. 3B
Plasma stability, rat = assay type: in vitro ADME
Lmna^wt/G609G mice = assay: Life span and morphology of Lmna^wt/G609G mice; assay type: in vivo, mouse
[2] = system: progerin expression in progerin-transfected 293 cells; assay: Progerin expression analysis in progerin-transfected 293 cells (Western blot); assay type: cell-based; details: 24 hours, FIG. 1D
Experimental: HEK293 cell line, obtained from ATCC, were maintained in liquid medium (DMEM) containing 10% FBS and 1% antibiotics at 37° C.
Whole-cell lysates were prepared in RIPA.
15 μg of cell extracts were separated by SDS-PAGE and transferred onto a PVDF membrane.
The membrane was incubated for 1 h to overnight at 4° C. with primary antibody, followed by reaction with a secondary antibody at room temperature for 1 h.
Peroxidase activity was detected by chemiluminescence with ECL kit (Intron, Seoul, Korea) as recommended by its manufacturer.

hERG ion channel = hERG ion channel (Homo sapiens, UniProt Q12809); assay: hERG inhibition (in vitro ADME); details: in vitro ADME analysis, FIG. 2B
[3] = Lmna^wt/G609G mice, injection started from 43 weeks old, FIG. 2E

hERG ion channel, sequence (Q12809 whole entry): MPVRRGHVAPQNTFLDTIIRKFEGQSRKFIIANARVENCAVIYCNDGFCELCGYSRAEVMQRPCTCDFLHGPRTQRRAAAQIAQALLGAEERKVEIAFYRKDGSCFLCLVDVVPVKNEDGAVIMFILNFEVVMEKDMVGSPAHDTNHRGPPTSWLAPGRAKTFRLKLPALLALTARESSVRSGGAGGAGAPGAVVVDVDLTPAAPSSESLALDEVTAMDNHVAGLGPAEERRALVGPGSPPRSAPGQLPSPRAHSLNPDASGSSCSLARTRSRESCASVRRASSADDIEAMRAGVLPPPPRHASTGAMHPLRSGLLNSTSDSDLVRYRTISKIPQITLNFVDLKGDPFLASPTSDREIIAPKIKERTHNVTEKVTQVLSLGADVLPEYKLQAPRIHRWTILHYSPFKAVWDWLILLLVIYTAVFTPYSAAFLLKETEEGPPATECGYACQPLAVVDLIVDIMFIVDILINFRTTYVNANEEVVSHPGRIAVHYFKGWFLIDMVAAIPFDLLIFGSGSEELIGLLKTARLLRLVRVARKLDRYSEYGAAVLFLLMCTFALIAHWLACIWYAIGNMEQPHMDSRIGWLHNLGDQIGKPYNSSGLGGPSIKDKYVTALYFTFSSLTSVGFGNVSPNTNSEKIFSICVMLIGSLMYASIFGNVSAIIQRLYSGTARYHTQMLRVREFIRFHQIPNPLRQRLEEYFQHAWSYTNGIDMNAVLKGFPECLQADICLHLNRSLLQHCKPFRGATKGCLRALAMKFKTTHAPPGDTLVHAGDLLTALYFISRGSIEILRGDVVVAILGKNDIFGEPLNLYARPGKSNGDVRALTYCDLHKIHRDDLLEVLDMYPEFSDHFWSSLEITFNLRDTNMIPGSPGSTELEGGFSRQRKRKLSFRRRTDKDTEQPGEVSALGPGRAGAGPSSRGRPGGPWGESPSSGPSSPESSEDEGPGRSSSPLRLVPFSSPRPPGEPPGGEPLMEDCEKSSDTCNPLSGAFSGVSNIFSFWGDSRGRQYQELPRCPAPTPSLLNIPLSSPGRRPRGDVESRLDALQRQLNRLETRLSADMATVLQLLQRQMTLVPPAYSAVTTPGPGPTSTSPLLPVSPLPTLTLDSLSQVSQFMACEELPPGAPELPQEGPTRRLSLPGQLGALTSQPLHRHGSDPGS

CC1(C)Oc2cc3oc(=O)ccc3cc2C[C@@H]1OC/C=C/c1ccccc1 [SLC-D011, (7S)-(+)-8,8-dimethyl-7-(3-phenyl-allyloxy)-7,8-dihydro-6H-pyrano[3,2-g]chromen-2-one]
stability in solution on heating and ultrasonic treatment [1]: stable without being decomposed even by heating and ultrasonic treatment | Plasma stability (% remaining) Rat 30 min (Plasma stability, rat; 30 min): 83.6 % remaining | Plasma stability (% remaining) Rat 120 min (Plasma stability, rat; 120 min): 75.1 % remaining | lifespan extended from 45 to (Lmna^wt/G609G mice; Lamn^wt/G609G model): 64 weeks | average life span (Lmna^wt/G609G mice; [3]): 65 weeks | maximum (max) life span (Lmna^wt/G609G mice; [3]): 66 weeks | morphology such as hair condition and body size (Lmna^wt/G609G mice; Lmna^wt/G609G mouse, FIG. 2F): greatly improved | progerin expression [2]: inhibiting progerin expression; also recorded: obviously suppresses progerin expression | hERG ion channel inhibition (hERG ion channel): severe hERG inhibition was not observed
